Results on eight compounds are retold here after article PMC12105006, “AI-Driven De Novo Design and Development of Nontoxic DYRK1A Inhibitors” (Journal of Medicinal Chemistry, 2025).

“Also recorded” adds a separate entry of the source. Read-outs that look alike come from different tables or passages of the source.

For data set [1], the system named is BV2 microglial cells. Nature of the data set: MTT cell viability / toxicity in BV2 cells. It counts as cell-based, mouse. The method, then: (§1) The mouse microglial BV2 cell line was propagated using DMEM, 10% FBS, 1% streptomycin–penicillin, under humidified 5% CO2 and 95% air. On attaining semiconfluence, cells were treated with 400 ng/mL of LPS for 24 h. Some cultures were pretreated for 1 h with the different compounds at several concentrations ranging from 1 to 10 μM. After treatment, cultures were processed for cell viability and nitrite production. Experiments were performed in triplicate. BV2 cells, microglial cells derived from C57/BL6 murine. These cells were immortalized using the v-raf/v-myc carrying J2 retrovirus, resulting in a stable cell line. The cells are commercially available from https://www.cytion.com/BV2-Cells/305156.
Cell viability was determined using the MTT assay, which measures the reduction of 3-(4,5-dimethylthiazol-2-yl)-2,5-diphenyltetrazolium bromide (MTT) to formazan crystals. Briefly, the MTT solution (2 mg/mL) was added to each well and incubated at 37 °C for 2 h. After removing the culture medium, 100 μL of dimethyl sulfoxide was added to each well to dissolve the formazan. The optical density was measured at 532 nm using a microplate reader. The absorbance of the control group was considered as 100% of the cell viability.

Data set [2] in a line: PAMPA-BBB assay. As to conditions: for BBB prediction: PAMPA-BBB, porcine brain lipid, 3 h, 25 °C. It is filed as in vitro ADME. The procedure:
The brain penetration of active compounds was assessed using a parallel artificial membrane permeability assay (PAMPA). Eleven drugs with known blood–brain barrier (BBB) permeability–Hydrocortisone, testosterone, imipramine, piroxicam, promazine, clonidine, desipramine, ofloxacin, aldosterone, verapamil, and caffeine–were included in each experiment to validate the analysis.
The compounds were dissolved in a 70/30 PBS pH = 7.4 buffer/ethanol solution at a concentration that ensured appropriate absorbance values in the UV–vis light spectrum. A 5 mL volume of these solutions was filtered using PDVF membrane filters (30 mm diameter, 0.45 μ m pore size).
The acceptor 96-well microplate (MultiScreen 96-well Culture Tray clear, Merck Millipore) was filled with 200 μL of PBS/ethanol (70/30). The donor 96-well filtrate plate (Multiscreen IP Sterile Plate PDVF membrane, 0.45 μ m pore size, Merck Millipore) was coated with 4 μL of porcine brain lipid (Spectra 2000) in dodecane (20 mg mL^–1).
After 5 min, 200 μL of each compound solution were added. The donor plate was then carefully placed onto the acceptor plate to form a “sandwich,” which was left undisturbed for 3 h at 25 °C. During this time, the compounds diffused from the donor plate through the brain lipid membrane into the acceptor plate.
After incubation, the donor plate was removed. The concentrations of the compounds and commercial drugs were determined by measuring absorbance in the donor wells (before incubation) and the acceptor wells (after incubation) using a CLARIOstar microplate reader (BMG LABTECH). Each sample was analyzed at five wavelengths in four replicates and two independent experiments.
The permeability coefficient (P e) of each drug, in centimeters per second, was calculated using the following formula Pe=Vd·Vr/(Vd−Vr)·s·t·100·Vd/100·Vd−%T(Vd−Vr) %T=Vr·Ar/Ad·Vd·100 where V d and V r are the volumes of the donor and receptor solutions (0.2 cm^3), s is the membrane area (0.2642 cm^2), t is the incubation time (3 h = 10,800 s), A r is the absorbance of the receptor plate after the experiment, and A d is the absorbance in the donor compartment before incubation. The results obtained for quality control drugs were compared with permeability data from the literature. […] Compounds that correlate with reported P e values between 2 and 4 × 10^–6 cm s^–1 are classified as CNS+/–.

For data set [3], the target named is Human DYRK1A Kinase (Homo sapiens, UniProt Q13627). Nature of the data set: ADP-Glo DYRK1A kinase enzyme inhibition assay. As to conditions: for IC50: read-out: IC50 (nM) DYRK1A, ATP (10 μmol/well) and DYRKtidE (4 μmol/well) as substrate, triplicate. On the technique in general: In ADP-Glo the light output rises with the ADP produced.
For data set [4], the target named is DYRK1B (Homo sapiens, UniProt Q9Y463). Nature of the data set: ADP-Glo DYRK1B kinase enzyme inhibition assay. As to conditions: read-out: IC50 (nM) DYRK1B; ATP (10 μmol/well) and DYRKtidE (4 μmol/well) as substrate; triplicate.
Chain of DYRK1B (Q9Y463 whole entry): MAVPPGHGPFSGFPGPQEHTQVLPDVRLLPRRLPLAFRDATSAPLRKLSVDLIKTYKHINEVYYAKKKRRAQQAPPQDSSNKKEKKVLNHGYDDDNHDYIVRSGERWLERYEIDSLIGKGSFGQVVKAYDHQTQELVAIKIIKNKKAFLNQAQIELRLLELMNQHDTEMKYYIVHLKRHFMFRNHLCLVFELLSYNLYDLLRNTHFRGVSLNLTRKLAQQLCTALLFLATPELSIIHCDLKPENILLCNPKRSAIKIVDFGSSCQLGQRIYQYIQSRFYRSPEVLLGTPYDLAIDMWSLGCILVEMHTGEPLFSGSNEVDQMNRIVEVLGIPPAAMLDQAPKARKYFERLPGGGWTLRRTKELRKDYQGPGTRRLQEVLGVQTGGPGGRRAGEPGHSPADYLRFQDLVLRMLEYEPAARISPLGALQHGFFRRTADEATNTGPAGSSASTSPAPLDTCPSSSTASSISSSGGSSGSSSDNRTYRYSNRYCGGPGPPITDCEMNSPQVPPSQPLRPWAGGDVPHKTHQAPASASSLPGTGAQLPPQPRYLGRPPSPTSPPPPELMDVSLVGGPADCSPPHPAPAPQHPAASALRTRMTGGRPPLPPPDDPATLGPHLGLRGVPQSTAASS
Data set [5] is described as follows: Oxygen radical absorbance capacity (ORAC) antioxidant assay.
Data set [6] deals with LPS-induced NO production in BV2 microglial cells. Nature of the data set: LPS-induced nitrite (NO) production, Griess reaction. It is filed as cell-based, mouse. As to conditions: for dose-dependent inhibition of LPS-induced NO production: decreasing concentrations (Figures S17, S18); for LPS-induced NO production: maximum dose 5 μM (1, 5, 8, 9) or 10 μM (6, 7, 10, 11), LPS 24 h, 1 h pretreatment. The procedure: as §1
The assessment of NO production involved quantifying nitrite levels, one of the end products of NO oxidation, through a procedure based on the diazotization of nitrite by sulfanilic acid (Griess reaction). Upon reaching semiconfluence, cells were exposed to 400 ng/mL of LPS for 24 h. Before this, certain cultures were pretreated with various compounds at concentrations ranging from 0.5 to 10 μM. Following a 24-h incubation period, 50 μL aliquots of the samples were combined with 50 μL of Griess reagent in 96-well plates, and the mixture was allowed to incubate at room temperature for 10 min. The absorbance of the resulting mixture was then measured at 520 nm using a microplate reader.

Where [7] appears, read: phosphate buffer pH 7.4, fluorescein/AAPH.

What is called IC50 is the concentration needed to halve the response being measured.

In the case of `Clc1cc(Cl)cc(-c2c[nH]c3ncc(-c4cnn(C5CCNCC5)c4)cc23)c1` [Compound 10, 3-(3,5-Dichlorophenyl)-5-(1-(piperidin-4-yl)-1H-pyrazol-4-yl)-1H-pyrrolo[2,3-b]pyridine], the “toxicity (MTT assay)” value in data set [1] (concentrations up to 10 μM) is reported as “nontoxic”. The “ability to cross the blood–brain barrier by passive permeation” value in data set [2] (PAMPA) is recorded as “in the limit of a positive prediction”. Also, in data set [2], the BBB prediction entry was “CNS+/– (Compounds that correlate with reported P e values between 2 and 4 × 10^–6 cm s^–1 are classified as CNS+/–)”. Also, the values for the IC50 in data set [3] and in data set [4] were 450 ± 18 nM and 566 ± 61 nM, respectively. Besides, the ORAC in data set [5] is 0.55 ± 0.07; in data set [5] (setting [7]) it was 0.55 ± 0.07 μmol of trolox equivalents/μmol of tested compound. Moreover, the “ORAC values” in data set [5] is reported as “around 0.5 trolox equivalents”.
On to `COc1cccc(-c2c[nH]c3ncc(-c4cnn(C5CCNCC5)c4)cc23)c1` [Compound 9, 3-(3-Methoxyphenyl)-5-(1-(piperidin-4-yl)-1H-pyrazol-4-yl)-1H-pyrrolo[2,3-b]pyridine], for which the results for the “toxicity (MTT assay)” value in data set [1] (at 5 μM) and in data set [1] (at 10 μM) were “nontoxic” and “exhibited toxicity”, respectively. For the same compound, the “dose-dependent inhibition of LPS-induced NO production” value in data set [6] is reported as “particularly strong”. For the same compound, the BBB prediction entry in data set [2] is recorded as “CNS+ (CNS+, correlating with a bibliographic P e > 4)”. Also, the “DYRK1A activity / IC50 values” in data set [3] was “comparable to the reference compound, harmine”. Also, the IC50 in data set [3] came out at 81 ± 4 nM; in data set [4] it was 109 ± 8 nM. For the same compound, the ORAC in data set [5] is reported as 1.3 ± 0.1; in data set [5] (setting [7]), 1.3 ± 0.1 μmol of trolox equivalents/μmol of tested compound.
On to `COc1cc(-c2c[nH]c3ncc(-c4cnn(C5CCN(C)CC5)c4)cc23)c(F)cc1C` [Compound 7, 3-(2-Fluoro-5-methoxy-4-methylphenyl)-5-(1-(1-methylpiperidin-4-yl)-1H-py-razol-4-yl)-1H-pyrrolo[2,3-b]pyridine], for which the “toxicity (MTT assay)” value in data set [1] (concentrations up to 10 μM) is “nontoxic”. Further, the BBB prediction entry in data set [2] is recorded as “CNS+ (CNS+, correlating with a bibliographic P e > 4)”. Besides, the IC50 in data set [4] worked out at 174 ± 31 nM. Further, the ORAC in data set [5] was 1.3 ± 0.1; in data set [5] (setting [7]), 1.3 ± 0.1 μmol of trolox equivalents/μmol of tested compound.
As for `COc1cc(-c2c[nH]c3ncc(-c4cnn(C5CCNCC5)c4)cc23)c(F)cc1C` [Compound 11, 3-(2-Fluoro-5-methoxy-4-methylphenyl)-5-(1-(piperidin-4-yl)-1H-pyrazol-4-yl)-1H-pyrrolo[2,3-b]pyridine], the “toxicity (MTT assay)” value in data set [1] (concentrations up to 10 μM) is recorded as “nontoxic”. Also, the BBB prediction entry in data set [2] is “CNS+ (CNS+, correlating with a bibliographic P e > 4)”. The 50% inhibitory concentration (IC50) is 165 ± 17 nM in data set [3] and 165 ± 30 nM in data set [4]. Also, the ORAC is reported as 1.20 ± 0.1 in data set [5] and 1.2 ± 0.1 μmol of trolox equivalents/μmol of tested compound in data set [5] (setting [7]).
Consider `CN1CCC(n2cc(-c3cnc4[nH]cc(-c5cc(Cl)cc(Cl)c5)c4c3)cn2)CC1` [Compound 6, 3-(3,5-Dichlorophenyl)-5-(1-(1-methylpiperidin-4-yl)-1H-pyrazol-4-yl)-1H-py-rrolo[2,3-b]pyridine], for which the “toxicity (MTT assay)” value in data set [1] (concentrations up to 10 μM) is “nontoxic”. Also, in data set [2], the BBB prediction entry was “CNS+ (CNS+, correlating with a bibliographic P e > 4)”. The IC50 in data set [4] was determined as 577 ± 49 nM. Also, in data set [5], the “ORAC values” was “around 0.5 trolox equivalents”.
Regarding `Fc1cccc(-c2c[nH]c3ncc(-c4cnn(C5CCNCC5)c4)cc23)c1` [Compound 8, 3-(3-Fluorophenyl)-5-(1-(piperidin-4-yl)-1H-pyrazol-4-yl)-1H-pyrrolo[2,3-b]py-ridine], the figures for the “toxicity (MTT assay)” value in data set [1] (at 5 μM) and in data set [1] (at 10 μM) were “nontoxic” and “exhibited toxicity”, respectively. The “dose-dependent inhibition of LPS-induced NO production” value in data set [6] is listed as “particularly strong”. The “LPS-induced NO production” value in data set [6] is listed as “most pronounced effects”. Also, the BBB prediction result in data set [2] was “CNS+ (CNS+, correlating with a bibliographic P e > 4)”. The “DYRK1A activity / IC50 values” in data set [3] is listed as “comparable to the reference compound, harmine”. Further, the values for the IC50 in data set [3] and in data set [4] were 48 ± 3 nM and 70 ± 5 nM, respectively. The ORAC in data set [5] was 1.0 ± 0.1; in data set [5] (setting [7]), 1.0 ± 0.1 μmol of trolox equivalents/μmol of tested compound.
As to `CN1CCC(n2cc(-c3cnc4[nH]cc(-c5cccc(F)c5)c4c3)cn2)CC1` [Compound 1, 3-(3-fluorophenyl)-5-(1-(1-methylpiperidin-4-yl)-1H-pyrazol-4-yl)-1H-pyrrolo[2,3-b]pyridine], the figures for the “toxicity (MTT assay)” value in data set [1] (at 5 μM) and in data set [1] (at 10 μM) were “nontoxic” and “exhibited toxicity”, respectively. Also, the “dose-dependent inhibition of LPS-induced NO production” value in data set [6] was “particularly strong”. In data set [6], the “LPS-induced NO production” value is listed as “most pronounced effects”. For the same compound, the BBB prediction entry in data set [2] was “CNS+ (CNS+, correlating with a bibliographic P e > 4)”. Moreover, the “DYRK1A activity / IC50 values” in data set [3] was “activity at the nanomolar level; also recorded: comparable to the reference compound, harmine”. Moreover, the IC50 in data set [3] was 41 ± 3 nM; in data set [4], 78 ± 3 nM. For the same compound, the ORAC in data set [5] was 1.02 ± 0.03; in data set [5] (setting [7]) it was 1.02 ± 0.03 μmol of trolox equivalents/μmol of tested compound.
As to `COc1cccc(-c2c[nH]c3ncc(-c4cnn(C5CCN(C)CC5)c4)cc23)c1` [Compound 5, 3-(3-Methoxyphenyl)-5-(1-(1-methylpiperidin-4-yl)-1H-pyrazol-4-yl)-1H-pyrro-lo[2,3-b]pyridine], the “toxicity (MTT assay)” value was “nontoxic” in data set [1] (at 5 μM) and “exhibited toxicity” in data set [1] (at 10 μM). Moreover, the “dose-dependent inhibition of LPS-induced NO production” value in data set [6] is given as “particularly strong”. The BBB prediction entry in data set [2] is reported as “CNS+ (CNS+, correlating with a bibliographic P e > 4)”. Also, the “DYRK1A activity / IC50 values” in data set [3] is “comparable to the reference compound, harmine”. Besides, the half-maximal inhibitory concentration (IC50) in data set [3] came to 79 ± 5 nM; in data set [4] it was 119 ± 11 nM. The ORAC in data set [5] is on record as 1.25 ± 0.07; in data set [5] (setting [7]), 1.25 ± 0.07 μmol of trolox equivalents/μmol of tested compound.
